Laboratory results published in ChEMBL document CHEMBL1155753, “Verbalactone, a new macrocyclic dimer lactone from the roots of Verbascum undulatum with antibacterial activity” (2001).
Values after ≈ are worked out from the molar mass of the structure shown.

Columns and labels:
Staphylococcus aureus = assay: Antibacterial activity against Staphylococcus aureus ATCC 25923 after 24 hrs by agar dilution method; assay type: functional; conditions: ATCC 25923, 24 h
Escherichia coli = assay: Antibacterial activity against Escherichia coli ATCC 25922 after 24 hrs by agar dilution method; assay type: functional; conditions: ATCC 25922, 24 h
[1] = system: Staphylococcus epidermidis; assay: Antibacterial activity against Staphylococcus epidermidis isolate after 24 hrs by agar dilution method; assay type: functional
Klebsiella pneumoniae = assay: Antibacterial activity against Klebsiella pneumoniae isolate after 24 hrs by agar dilution method; assay type: functional
Klebsiella aerogenes = assay: Antibacterial activity against Enterobacter aerogenes isolate after 24 hrs by agar dilution method; assay type: functional
[2] = system: Salmonella enterica subsp. enterica; assay: Antibacterial activity against Salmonella enteritidis isolate after 24 hrs by agar dilution method; assay type: functional, Salmonella enterica subsp. enterica serovar Enteritidis
Pseudomonas aeruginosa = assay: Antibacterial activity against Pseudomonas aeruginosa ATCC 27853 after 24 hrs by agar dilution method; assay type: functional; conditions: ATCC 27853, 24 h
Lacticaseibacillus casei = assay: Antibacterial activity against Lactobacillus casei isolate after 24 hrs by agar dilution method; assay type: functional

MIC (Staphylococcus aureus): 62.5 µg/mL (≈ 168 µM) | MIC (Escherichia coli): 250 µg/mL (≈ 671 µM) | MIC [1]: 62.5 µg/mL (≈ 168 µM) | MIC (Klebsiella pneumoniae): 250 µg/mL (≈ 671 µM) | MIC (Klebsiella aerogenes): > 500 µg/mL | MIC [2]: 125 µg/mL (≈ 336 µM) | MIC (Pseudomonas aeruginosa): 500 µg/mL (≈ 1340 µM) | MIC (Lacticaseibacillus casei): > 125 µg/mL
Compound: CCCCC[C@@H]1C[C@@H](O)CC(=O)O[C@H](CCCCC)C[C@@H](O)CC(=O)O1 [VERBALACTONE]
